“Also recorded” adds a separate entry of the source.
Experiments:
[1] = test system: PC3 cell; assay: APO-BRDU endlabelling of DNA fragmentation, flow cytometry, PC3; assay type: cell-based, human
Experimental: (§1) At the end of the treatment period, cells are trypsinized, resuspended in media, resuspended in PBS, resuspended in iced cold methanol free formaldehyde (1% in PBS) for 15 min, resuspended in 70% ethanol and stored at −20° C. until all samples from a given experiment are ready to run (19, 23). Using a very powerful endlabelling technique (APO-BRDU, Phoenix Flow Systems, California) which gives a dynamic range of fluorescence intensities of up to 1000 fold comparing control cells to cells with advanced DNA fragmentation. Results have been confirmed using positive and negative controls provided by Phoenix Flow Systems, camptothecin treated PC3 cells, and a SNAP treated myocyte line.
(§2) Fixed cells are labeled following kit instructions (two washes with kit buffer, overnight endlabelling, two resuspensions in a rinse buffer, exposure to fluorescent antibody and treatment with propidium iodide and RNAase. Flow cytometry is performed on a Becton/Dickenson FACStar II. Individual fluorescence intensity values for 10,000 cells are obtained for each sample.
To specifically assay DNA fragmentation, a downstream response to apoptosis, uses of a terminal deoxynucleotidyl transferase labeling approach whereby fluorescent moieties are enzymatically attached to all DNA fragment ends. (FIG. 3a) The technique which was used, has a dynamic range of approximately ×1000 (FIG. 2). […]

[2] = test system: PC3 and DU145 tumors; assay: IR sodium MRI, PC3 and DU145 tumors taken as a whole; assay type: in vivo, nude mice; settings: PC3 and DU145 tumors plotted together
Experimental: (A) Chemotherapy and inversion recovery MR imaging—Following acquisition of control images, antineoplastics were administered. All IR images and SQ images were normalized to the brightest phantom within each slice (i.e., 40% Ficoll for IR and 30% Ficoll for SQ respectively). All tumors were analyzed by examining changes in intensity at the brightest—usually central area—of the tumor image. It was clearly identifiable both from manual examination with line profiles or from the pixel density histogram derived from a region of interest analysis. […] Results from PC3 tumors (solid lines, filled circles) and DU145 tumors (dashed lines, open circles) are plotted together. […]
In vivo detection of antineoplastic effects using weighted sodium MR images—Examination of the effect of chemotherapy on the IR sodium image in a series of PC3 and DU145 tumors was studied. […] Elevation is significant for each drug taken separately for the more numerous PC3 tumor experiments (taxotere, 32% increase at p<0.001, n=5; VP-16, 38% increase at p<0.0005, n=7); and is also significant for all PC3 experiments measured at 48 hrs (28%, p<0.05, n=11). […]
The effect of chemotherapy on the IR sodium image intensity in PC3 and DU145 tumors was consistent with the culture results. […] These values were calculated from human doses using standard equations which convert weight to surface area for small mammals. […]

[3] = test system: L cells; settings: cited from earlier work
[4] = test system: LNCaP; assay: APO-BRDU endlabelling of DNA fragmentation, flow cytometry, LNCaP; assay type: cell-based, human
Experimental: as §1, §2
To specifically assay DNA fragmentation, a downstream response to apoptosis, uses of a terminal deoxynucleotidyl transferase labeling approach whereby fluorescent moieties are enzymatically attached to all DNA fragment ends. (FIG. 3a) The technique which was used, has a dynamic range of approximately ×1000 (FIG. 2). This allows for making very quantitative comparisons of DNA fragmentation on a cell to cell basis using flow cytometry, and to further examine the relative drug sensitivity profiles of the 3 cell lines.

[5] = test system: mouse; settings: in vivo; cited from earlier work
[6] = human single loading doses; cited from earlier work
[7] = test system: carcinogen (MNU) induced breast tumor; assay: Weighted and non-weighted sodium MRI of carcinogen (MNU) induced breast tumor; assay type: in vivo, Sprague Dawley rat; settings: rat
Experimental: In another example, a breast cancer tumor is imaged in an animal model. This image verifies that the imaging diagnostic described herein responds to the treatment of a different animal model when using a different tissue type as the neoplastic target. The tumor was induced by injecting a Sprague Dawley rat with carcinogen MNU. When the tumor was palpable and measured in excess of 5 mm in diameter, the rat was imaged using weighting and non-weighting pulse sequences. One rat was given a 3 mg intra venous injection of taxotere and a second was given a 6 mg injection of taxotere. […] Both the images became brighter, with the most dramatic proportional change occurring in the weighted image.

[8] = test system: LNCaP tumor; assay: Na SQ and TQ line profiles of LNCaP tumor in vivo; settings: 18 hours after i.v. injection of 1 mg in the femoral vein
Experimental: After preliminary studies, experiments were performed where proton, Na SQ and Na TQ images and line profiles were acquired at baseline and following bolus i.v. injection of chemotherapy. Imaging results for a LNCaP tumor in vivo, both at baseline and 18 hours after i.v. injection of 1 mg of taxotere in the femoral vein were examined.

| Compound | time course of DNA fragmentation [1] | IR image intensity at 24 hrs versus control (graphs) [2] | effect on total cellular monovalent cations ([3]; K+ loss exceeds Na+ gain) | effect on [Cai] ([3]; L cells) | effect on [Nai] ([3]; L cells) | effect on pHi ([3]; L cells) | DNA fragmentation response ([4]; 24 hrs) | DNA fragmentation response ([4]; 44 hrs) | reported toxic mouse dose [5] | peak plasma level [6] | plasma level for the first 9.6 hrs [6] | plasma level for the first 25 hrs [6] | response of sodium MR images to treatment ([7]; 3 mg intra venous injection) | response of sodium MR images to treatment ([7]; 6 mg intravenous injection) | change of SQ line profile [8] | change of TQ line profiles [8] |
| --- | --- | --- | --- | --- | --- | --- | --- | --- | --- | --- | --- | --- | --- | --- | --- | --- |
| COc1cc([C@@H]2c3cc4c(cc3[C@@H](O[C@@H]3O[C@@H]5CO[C@@H](C)O[C@H]5[C@H](O)[C@H]3O)[C@H]3COC(=O)[C@H]23)OCO4)cc(OC)c1O [VP-16, etoposide] | continues to develop beyond the 24-hr sample point | increased image intensity | net reduction | elevate | elevate | lowers | almost no response | significant DNA fragmentation | – | – | – | – | – | – | – | – |
| CC(=O)O[C@@]12CO[C@@H]1C[C@H](O)[C@@]1(C)C(=O)[C@H](O)C3=C(C)[C@@H](OC(=O)[C@H](O)[C@@H](NC(=O)OC(C)(C)C)c4ccccc4)C[C@@](O)([C@@H](OC(=O)c4ccccc4)[C@H]21)C3(C)C [taxotere] | continues to develop beyond the 24-hr sample point | increased image intensity | – | – | – | – | almost no response | significant DNA fragmentation | 4.5 mg | about 5 μMol/L | > 50 nM | > 10 nM | Only the latter showed a response | showed a response; also recorded: become brighter after the treatment | did not significantly vary | substantial increase |
